For data set [1], the target named is Vascular endothelial growth factor receptor 2 (Homo sapiens, UniProt P35968). Description: Inhibition of human KDR using poly[Glu:Tyr] (4:1) as substrate in presence of [gamma-33P]-ATP by scintillation counting method.
For data set [2], the target named is Dual specificity mitogen-activated protein kinase kinase 6 (Homo sapiens, UniProt P52564). Description: Inhibition of human MKK6 using p38a as substrate in presence of [gamma-33P]-ATP by scintillation counting method.
Data set [3] deals with T1, Activin receptor type-1-like (Homo sapiens, UniProt P37023). Kind of data set: Inhibition of human ALK1 using casein as substrate in presence of [gamma-33P]-ATP by scintillation counting method.
Data set [4] has as its target Dual specificity mitogen-activated protein kinase kinase 6 (Homo sapiens) (UniProt P52564). Kind of data set: Inhibition of human MKK6 at 1 uM using p38a as substrate in presence of [gamma-33P]-ATP by scintillation counting method relative to control.
For data set [5], the target named is T2, Activin receptor type-1-like (Mus musculus) (UniProt Q61288).
T2 sequence (whole entry): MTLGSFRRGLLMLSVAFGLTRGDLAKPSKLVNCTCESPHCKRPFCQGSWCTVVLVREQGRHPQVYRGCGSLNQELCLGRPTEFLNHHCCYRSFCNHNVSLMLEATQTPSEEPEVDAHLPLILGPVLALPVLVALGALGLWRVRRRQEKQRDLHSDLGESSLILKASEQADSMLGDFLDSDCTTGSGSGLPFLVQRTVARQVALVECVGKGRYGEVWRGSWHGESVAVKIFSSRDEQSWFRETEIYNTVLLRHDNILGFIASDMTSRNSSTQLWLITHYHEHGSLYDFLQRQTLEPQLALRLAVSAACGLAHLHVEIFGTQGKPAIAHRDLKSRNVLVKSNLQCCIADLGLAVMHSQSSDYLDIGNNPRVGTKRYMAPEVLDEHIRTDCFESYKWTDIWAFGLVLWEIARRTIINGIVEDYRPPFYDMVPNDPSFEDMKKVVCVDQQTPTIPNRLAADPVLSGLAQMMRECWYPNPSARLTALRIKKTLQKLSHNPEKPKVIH
Kind of data set: Inhibition of BMP9-stimulated ALK1 in mouse C2C12 cells assessed as reduction in Smad1/5 phosphorylation at 10 uM pretreated for 2 hrs followed by BMP9-stimulation after 30 mins by western blot analysis relative to control. The data set is classed as cell-based.

In data set [6] the target is T2, Activin receptor type-1-like (Mus musculus). Kind of data set: Inhibition of BMP9-stimulated ALK1 in mouse C2C12 cells assessed as reduction in Smad1/5 phosphorylation at 0.1 to 1 uM pretreated for 2 hrs followed by BMP9-stimulation after 30 mins by western blot analysis. The data set is classed as cell-based.
A further data set has as its target TGF-beta receptor type-1 (Homo sapiens, UniProt P36897). Description: Inhibition of human ALK5 using casein as substrate in presence of 10 uM ATP by radiometric kinase assay.
In the next data set the target is Activin receptor type-1 (Homo sapiens, UniProt Q04771). Kind of data set: Inhibition of human ALK2 using casein as substrate in presence of 200 uM ATP by radiometric kinase assay.
The target of data set [7] is ALK4 (activin receptor type-1B) (Homo sapiens, UniProt P36896). Kind of data set: Inhibition of human ALK4 at 10 uM using casein as substrate in presence of 200 uM ATP by radiometric kinase assay relative to control. The following applies: human ALK4 kinase (activin receptor type-1B), probe casein.
Data set [8] addresses ALK6 (bone morphogenetic protein receptor type-1B) (Homo sapiens, UniProt O00238). Kind of data set: Inhibition of human ALK6 at 10 uM using casein as substrate in presence of 200 uM ATP by radiometric kinase assay relative to control. The note with it: probe casein.
The test system of a further data set is HUVEC. Kind of data set: Angiogenic activity in HUVEC assessed as increase in angiogenic sprouting in presence of recombinant human VEGF165 by microfluidic chip based 3D angiogenesis assay. It counts as functional, cell-based.
The target of data set [9] is T2, Activin receptor type-1-like (Mus musculus). Description: Inhibition of BMP9-stimulated ALK1 in mouse C2C12 cells assessed as decrease in AKT phosphorylation at S473 at 0.1 to 10 uM pretreated for 2 hrs followed by BMP9-stimulation after 30 mins by western blot analysis. It counts as cell-based.
For data set [10], the target named is Vascular endothelial growth factor receptor 3 (Homo sapiens, UniProt P35916). The following applies: 1 uM.
Description: Inhibition of human FLT4 at 1 uM using poly[Glu:Tyr] (4:1) as substrate in presence of [gamma-33P]-ATP by scintillation counting method relative to control
Data set [11] concerns the target Receptor-type tyrosine-protein kinase FLT3 (Homo sapiens) (UniProt P36888). The note with it: 1 uM.
Data set [12] concerns the target T1, Activin receptor type-1-like. The following applies: 1 uM.
Description: Inhibition of human ALK1 at 1 uM using casein as substrate in presence of [gamma-33P]-ATP by scintillation counting method relative to control

Active and inactive are the calls of the source. The rule behind the calls is not given here.

T1 sequence (P37023 whole entry): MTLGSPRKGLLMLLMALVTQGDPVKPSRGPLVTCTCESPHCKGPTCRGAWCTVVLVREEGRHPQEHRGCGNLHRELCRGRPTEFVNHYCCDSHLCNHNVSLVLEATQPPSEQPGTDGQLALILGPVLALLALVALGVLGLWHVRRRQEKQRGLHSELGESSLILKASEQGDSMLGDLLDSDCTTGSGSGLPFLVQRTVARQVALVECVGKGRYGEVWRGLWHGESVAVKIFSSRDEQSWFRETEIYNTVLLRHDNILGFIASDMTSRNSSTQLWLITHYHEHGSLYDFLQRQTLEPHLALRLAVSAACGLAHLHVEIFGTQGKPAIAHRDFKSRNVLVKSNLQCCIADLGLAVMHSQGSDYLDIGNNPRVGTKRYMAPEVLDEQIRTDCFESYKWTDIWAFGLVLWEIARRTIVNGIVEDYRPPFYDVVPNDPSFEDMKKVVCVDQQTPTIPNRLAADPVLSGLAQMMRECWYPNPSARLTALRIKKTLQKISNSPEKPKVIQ
Sequence of Vascular endothelial growth factor receptor 2 (P35968 whole entry): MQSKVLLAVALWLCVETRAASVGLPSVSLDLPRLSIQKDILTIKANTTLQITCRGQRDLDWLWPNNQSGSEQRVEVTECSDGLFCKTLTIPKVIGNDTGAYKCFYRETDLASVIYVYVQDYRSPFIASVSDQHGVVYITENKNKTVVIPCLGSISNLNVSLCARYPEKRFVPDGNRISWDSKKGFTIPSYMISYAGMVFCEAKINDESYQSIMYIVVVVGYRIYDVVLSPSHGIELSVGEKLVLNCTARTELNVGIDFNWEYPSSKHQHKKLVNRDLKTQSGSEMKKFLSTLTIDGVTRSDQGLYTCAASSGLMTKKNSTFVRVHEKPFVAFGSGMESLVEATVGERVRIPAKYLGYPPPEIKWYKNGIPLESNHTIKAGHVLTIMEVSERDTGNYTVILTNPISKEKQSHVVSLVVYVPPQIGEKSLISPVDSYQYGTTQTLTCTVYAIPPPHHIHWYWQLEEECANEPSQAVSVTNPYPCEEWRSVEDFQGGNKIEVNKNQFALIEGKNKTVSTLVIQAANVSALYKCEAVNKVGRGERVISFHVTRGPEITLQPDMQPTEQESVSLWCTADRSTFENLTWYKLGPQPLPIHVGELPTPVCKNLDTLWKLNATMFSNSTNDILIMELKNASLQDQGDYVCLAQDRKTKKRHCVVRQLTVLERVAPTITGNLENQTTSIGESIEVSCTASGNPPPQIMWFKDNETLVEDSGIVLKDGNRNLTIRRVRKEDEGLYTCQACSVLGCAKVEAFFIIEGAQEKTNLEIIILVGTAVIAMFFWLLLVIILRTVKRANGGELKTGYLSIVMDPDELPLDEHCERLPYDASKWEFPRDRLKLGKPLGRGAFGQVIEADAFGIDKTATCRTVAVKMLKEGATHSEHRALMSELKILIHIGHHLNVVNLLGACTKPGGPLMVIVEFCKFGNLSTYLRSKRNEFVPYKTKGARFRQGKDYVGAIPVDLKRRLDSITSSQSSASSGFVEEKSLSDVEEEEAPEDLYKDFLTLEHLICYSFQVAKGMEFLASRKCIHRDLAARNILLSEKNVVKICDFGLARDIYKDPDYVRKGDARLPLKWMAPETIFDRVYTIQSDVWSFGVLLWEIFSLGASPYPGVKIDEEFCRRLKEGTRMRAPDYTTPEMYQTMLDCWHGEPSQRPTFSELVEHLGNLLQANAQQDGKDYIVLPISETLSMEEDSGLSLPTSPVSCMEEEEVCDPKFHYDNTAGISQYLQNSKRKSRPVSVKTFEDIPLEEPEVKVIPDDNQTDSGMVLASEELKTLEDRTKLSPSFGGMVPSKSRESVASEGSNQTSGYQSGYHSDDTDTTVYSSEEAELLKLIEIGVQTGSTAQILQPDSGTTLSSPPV
Sequence of Dual specificity mitogen-activated protein kinase kinase 6 (Homo sapiens) (P52564 whole entry): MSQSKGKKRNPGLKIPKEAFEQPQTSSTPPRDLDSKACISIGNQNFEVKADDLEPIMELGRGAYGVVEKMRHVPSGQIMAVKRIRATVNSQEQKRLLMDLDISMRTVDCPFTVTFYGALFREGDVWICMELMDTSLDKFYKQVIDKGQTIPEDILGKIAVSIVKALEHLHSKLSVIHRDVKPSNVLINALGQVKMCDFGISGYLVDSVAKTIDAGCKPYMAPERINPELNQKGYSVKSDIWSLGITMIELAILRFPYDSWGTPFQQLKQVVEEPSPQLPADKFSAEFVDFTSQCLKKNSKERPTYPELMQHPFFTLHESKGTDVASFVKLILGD
Sequence of Dual specificity mitogen-activated protein kinase kinase 6 (P52564 whole entry): as above
Sequence of TGF-beta receptor type-1 (P36897 whole entry): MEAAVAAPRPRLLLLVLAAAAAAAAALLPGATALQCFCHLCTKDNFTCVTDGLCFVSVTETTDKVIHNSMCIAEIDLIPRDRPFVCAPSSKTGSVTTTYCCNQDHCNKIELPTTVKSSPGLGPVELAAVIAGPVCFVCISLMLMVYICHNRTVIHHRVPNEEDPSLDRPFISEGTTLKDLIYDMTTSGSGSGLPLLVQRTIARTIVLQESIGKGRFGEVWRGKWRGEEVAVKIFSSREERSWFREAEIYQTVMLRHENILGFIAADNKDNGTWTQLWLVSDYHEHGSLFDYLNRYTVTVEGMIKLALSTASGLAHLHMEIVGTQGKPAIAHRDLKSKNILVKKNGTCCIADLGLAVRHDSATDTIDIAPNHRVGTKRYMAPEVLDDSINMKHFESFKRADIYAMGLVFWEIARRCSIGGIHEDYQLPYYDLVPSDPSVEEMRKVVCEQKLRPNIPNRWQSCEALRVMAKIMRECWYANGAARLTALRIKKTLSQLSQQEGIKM
Sequence of ALK6 (bone morphogenetic protein receptor type-1B) (O00238 whole entry): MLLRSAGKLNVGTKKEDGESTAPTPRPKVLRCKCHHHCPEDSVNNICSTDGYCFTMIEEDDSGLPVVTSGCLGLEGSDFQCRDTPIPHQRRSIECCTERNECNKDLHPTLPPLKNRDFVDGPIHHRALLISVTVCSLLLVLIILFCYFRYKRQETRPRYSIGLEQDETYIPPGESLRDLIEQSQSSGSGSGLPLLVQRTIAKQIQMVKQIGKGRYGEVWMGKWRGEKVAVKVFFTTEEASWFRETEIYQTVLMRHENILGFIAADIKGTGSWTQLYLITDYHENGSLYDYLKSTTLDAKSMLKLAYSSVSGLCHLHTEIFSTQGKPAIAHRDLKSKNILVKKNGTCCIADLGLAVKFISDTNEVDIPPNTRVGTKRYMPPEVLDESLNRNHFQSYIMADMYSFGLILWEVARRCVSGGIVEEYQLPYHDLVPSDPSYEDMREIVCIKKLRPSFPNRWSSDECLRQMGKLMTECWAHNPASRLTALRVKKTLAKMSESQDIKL
Sequence of Activin receptor type-1 (Q04771 whole entry): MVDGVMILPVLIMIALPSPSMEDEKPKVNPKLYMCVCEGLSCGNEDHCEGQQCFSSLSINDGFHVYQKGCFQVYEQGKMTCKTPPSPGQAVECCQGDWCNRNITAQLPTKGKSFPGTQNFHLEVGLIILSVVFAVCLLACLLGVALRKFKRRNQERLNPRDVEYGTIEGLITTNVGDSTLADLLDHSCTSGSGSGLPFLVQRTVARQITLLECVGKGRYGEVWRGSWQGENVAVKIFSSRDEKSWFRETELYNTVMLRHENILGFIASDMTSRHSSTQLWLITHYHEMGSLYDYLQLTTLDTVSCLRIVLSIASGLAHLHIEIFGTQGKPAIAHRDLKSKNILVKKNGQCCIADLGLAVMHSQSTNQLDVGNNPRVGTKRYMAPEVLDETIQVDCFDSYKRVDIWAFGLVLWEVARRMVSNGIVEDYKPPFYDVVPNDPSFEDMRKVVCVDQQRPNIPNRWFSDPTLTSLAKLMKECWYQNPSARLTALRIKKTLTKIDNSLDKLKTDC
Sequence of Receptor-type tyrosine-protein kinase FLT3 (Homo sapiens) (P36888 whole entry): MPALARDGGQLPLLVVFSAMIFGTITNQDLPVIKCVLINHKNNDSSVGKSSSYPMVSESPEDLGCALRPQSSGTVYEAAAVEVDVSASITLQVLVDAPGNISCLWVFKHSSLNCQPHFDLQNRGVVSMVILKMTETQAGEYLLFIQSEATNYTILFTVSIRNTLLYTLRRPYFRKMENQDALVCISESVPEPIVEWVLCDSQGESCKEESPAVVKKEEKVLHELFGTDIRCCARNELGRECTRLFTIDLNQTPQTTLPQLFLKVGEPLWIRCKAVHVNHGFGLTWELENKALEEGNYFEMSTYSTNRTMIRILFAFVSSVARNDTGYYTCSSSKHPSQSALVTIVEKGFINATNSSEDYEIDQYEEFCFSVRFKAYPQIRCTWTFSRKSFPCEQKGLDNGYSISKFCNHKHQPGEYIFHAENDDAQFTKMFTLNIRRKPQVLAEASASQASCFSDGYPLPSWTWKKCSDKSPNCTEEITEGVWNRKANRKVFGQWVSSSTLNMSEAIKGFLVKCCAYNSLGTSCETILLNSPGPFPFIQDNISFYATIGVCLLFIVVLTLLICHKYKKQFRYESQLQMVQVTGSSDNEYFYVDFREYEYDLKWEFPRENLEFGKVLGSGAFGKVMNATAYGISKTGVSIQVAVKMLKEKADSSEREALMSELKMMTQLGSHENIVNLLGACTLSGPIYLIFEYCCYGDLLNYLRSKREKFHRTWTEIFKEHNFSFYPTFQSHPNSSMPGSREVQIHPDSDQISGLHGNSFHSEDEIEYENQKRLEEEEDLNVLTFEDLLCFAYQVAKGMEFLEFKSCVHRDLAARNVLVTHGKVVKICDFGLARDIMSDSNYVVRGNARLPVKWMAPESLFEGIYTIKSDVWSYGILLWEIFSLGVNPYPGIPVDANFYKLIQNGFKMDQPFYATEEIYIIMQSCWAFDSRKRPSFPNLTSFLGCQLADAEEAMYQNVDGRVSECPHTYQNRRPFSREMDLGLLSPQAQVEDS

`COc1cc(O)c2c(c1)CCC[C@H](O)[C@H](O)C(=O)CCC[C@H](C)OC2=O`: the IC50 in data set [1] was 0.163 µM; in [2] it was more than 10 µM; in [3], 0.062 µM; on TGF-beta receptor type-1, 7.21 µM; on Activin receptor type-1 it was 3.35 µM. The inhibition in data set [4] is 89%; in data set [5], 100%; in data set [10] it was more than 80%; in data set [11], more than 80%; in data set [12], more than 80%. Moreover, in data set [6], the inhibition entry is “Active”. Besides, the inhibition at 10 µM in data set [7] and in data set [8] was less than 40% throughout. In addition, the Activity result in the data set on HUVEC is “Dose-dependent effect”. Also, in data set [9], the inhibition result is “inactive”.
